PubChem BioAssay (NCI)
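Exposure lasted 48 hours, with cells grown in 96-well plates and compounds tested at five concentrations. GI50 marks 50% less growth. TGI: concentration producing complete growth inhibition.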

Key:
Assay in all cases: NCI anticancer screen, dose series, 48 h
786-0 renal = system: 786-0 renal
A498 renal = system: A498 renal
A549 NSCLC = system: A549 NSCLC
ACHN renal = system: ACHN renal
BT-549 breast = system: BT-549 breast
CAKI-1 renal = system: CAKI-1 renal
CCRF-CEM leukemia = system: CCRF-CEM leukemia
COLO 205 colon = system: COLO 205 colon
DU-145 prostate = system: DU-145 prostate
EKVX NSCLC = system: EKVX NSCLC
HCC-2998 colon = system: HCC-2998 colon
HCT-116 colon = system: HCT-116 colon
HCT-15 colon = system: HCT-15 colon
HL-60(TB) leukemia = system: HL-60(TB) leukemia
HOP-62 NSCLC = system: HOP-62 NSCLC
HOP-92 NSCLC = system: HOP-92 NSCLC
HS 578T breast = system: HS 578T breast
HT29 colon = system: HT29 colon
IGROV1 ovarian = system: IGROV1 ovarian
K-562 leukemia = system: K-562 leukemia
KM12 colon = system: KM12 colon
LOX IMVI melanoma = system: LOX IMVI melanoma
M14 melanoma = system: M14 melanoma
MALME-3M melanoma = system: MALME-3M melanoma
MCF7 breast = system: MCF7 breast
MDA-MB-231 breast = system: MDA-MB-231 breast
MDA-MB-435 = system: MDA-MB-435
MDA-MB-468 breast = system: MDA-MB-468 breast
MOLT-4 leukemia = system: MOLT-4 leukemia

SMILES: CC1=C(C)C(=O)C(NCCN2CCOCC2)=C(Br)C1=O
- GI50 (786-0 renal): 17.8 µM
- TGI (786-0 renal): 32.1 µM
- GI50 (A498 renal): 19.2 µM
- TGI (A498 renal): 34 µM
- GI50 (A549 NSCLC): 17.4 µM
- TGI (A549 NSCLC): 34 µM
- GI50 (ACHN renal): 13.8 µM
- TGI (ACHN renal): 26.8 µM
- GI50 (BT-549 breast): 13.7 µM
- TGI (BT-549 breast): 26.6 µM
- GI50 (CAKI-1 renal): 10.7 µM
- TGI (CAKI-1 renal): 23.3 µM
- GI50 (CCRF-CEM leukemia): 3.44 µM
- TGI (CCRF-CEM leukemia): > 100 µM
- GI50 (COLO 205 colon): 17.9 µM
- TGI (COLO 205 colon): 33.6 µM
- GI50 (DU-145 prostate): 12.7 µM
- TGI (DU-145 prostate): 25.7 µM
- GI50 (EKVX NSCLC): 12.8 µM
- TGI (EKVX NSCLC): 25.9 µM
- GI50 (HCC-2998 colon): 15.3 µM
- TGI (HCC-2998 colon): 28.7 µM
- GI50 (HCT-116 colon): 2.93 µM
- TGI (HCT-116 colon): 10.9 µM
- GI50 (HCT-15 colon): 15.9 µM
- TGI (HCT-15 colon): 30.9 µM
- GI50 (HL-60(TB) leukemia): 2.46 µM
- TGI (HL-60(TB) leukemia): 7.24 µM
- GI50 (HOP-62 NSCLC): 14.6 µM
- TGI (HOP-62 NSCLC): 28.1 µM
- GI50 (HOP-92 NSCLC): 13.3 µM
- TGI (HOP-92 NSCLC): 28 µM
- GI50 (HS 578T breast): 9.04 µM
- TGI (HS 578T breast): 34.6 µM
- GI50 (HT29 colon): 16 µM
- TGI (HT29 colon): 31.3 µM
- GI50 (IGROV1 ovarian): 10.5 µM
- TGI (IGROV1 ovarian): 22.9 µM
- GI50 (K-562 leukemia): 3.3 µM
- TGI (K-562 leukemia): 61.9 µM
- GI50 (KM12 colon): 16.7 µM
- TGI (KM12 colon): 39.6 µM
- GI50 (LOX IMVI melanoma): 2.33 µM
- TGI (LOX IMVI melanoma): 8.36 µM
- GI50 (M14 melanoma): 13.6 µM
- TGI (M14 melanoma): 26.7 µM
- GI50 (MALME-3M melanoma): 2.25 µM
- TGI (MALME-3M melanoma): 5.37 µM
- GI50 (MCF7 breast): 3.66 µM
- TGI (MCF7 breast): 15.2 µM
- GI50 (MDA-MB-231 breast): 5.65 µM
- TGI (MDA-MB-231 breast): 18.7 µM
- GI50 (MDA-MB-435): 1.81 µM
- TGI (MDA-MB-435): 3.35 µM
- GI50 (MDA-MB-468 breast): 0.222 µM
- TGI (MDA-MB-468 breast): 0.885 µM
- GI50 (MOLT-4 leukemia): 5.35 µM
- TGI (MOLT-4 leukemia): 32.8 µM
